Assay results as given in patent publication US20160068514A1, “HALO AND TRIFLUOROMETHYL SUBSTITUTED OREXIN RECEPTOR ANTAGONISTS” (MERCK SHARP & DOHME CORP., priority 2013, published 2016).

Tests used:
[1] = molecular target: T1, human orexin-2 receptor (hOX2R) (Homo sapiens, UniProt O43614); experiment: FLIPR Ca2+ Flux Assay, hOX2R; type: cell-based; settings: CHO cells expressing hOX2R; agonist Ala-6,12 human orexin-A 70 pM
T1 construct: expressed in transfected cells; host or cells: Chinese hamster ovary (CHO) cells
T1 sequence (O43614 1-444): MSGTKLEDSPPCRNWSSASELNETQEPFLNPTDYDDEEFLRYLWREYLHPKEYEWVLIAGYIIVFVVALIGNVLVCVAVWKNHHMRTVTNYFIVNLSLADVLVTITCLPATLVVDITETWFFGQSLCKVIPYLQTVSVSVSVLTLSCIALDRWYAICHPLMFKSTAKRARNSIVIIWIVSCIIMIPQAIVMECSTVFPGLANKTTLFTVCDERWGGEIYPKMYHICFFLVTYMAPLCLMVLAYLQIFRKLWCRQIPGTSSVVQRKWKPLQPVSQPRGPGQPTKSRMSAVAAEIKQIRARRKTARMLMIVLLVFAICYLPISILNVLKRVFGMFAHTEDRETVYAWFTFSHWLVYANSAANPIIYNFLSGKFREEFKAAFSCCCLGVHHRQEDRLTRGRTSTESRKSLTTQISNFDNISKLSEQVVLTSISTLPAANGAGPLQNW
Excerpt: (§1) The utility of the compounds in accordance with the present invention as orexin receptor OX1R and/or OX2R antagonists may be readily determined without undue experimentation by methodology well known in the art, including the “FLIPR Ca^2+ Flux Assay” (Okumura et al., Biochem. Biophys. Res. Comm. 2001, 280:976-981). Briefly, for intracellular calcium measurements, Chinese hamster ovary (CHO) cells expressing the orexin-1 receptor (e.g., rat or human) or the orexin-2 receptor (e.g., rat or human), are grown in Iscove's modified DMEM containing 2 mM L-glutamine, […], 1% hypoxanthine-thymidine supplement, 100 U/ml penicillin, 100 μg/ml streptomycin and 10% heat-inactivated fetal calf serum (FCS). The cells are seeded at approximately 20,000 cells per well into 384-well clear bottom sterile plates coated with poly-D-lysine. The seeded plates are incubated overnight at 37° C. and 5% CO2. Human ala-6,12 orexin-A can be used as the agonist and prepared as a 1 mM stock solution in 1% bovine serum albumin (BSA) and diluted in assay buffer (HBSS containing 20 mM HEPES, 0.1% BSA and 2.5 mM probenecid, pH7.4) for use in the assay at a final concentration of 70 pM. Test compounds are prepared as 10 mM stock solution in DMSO, then diluted in 384-well plates, first in DMSO, then in assay buffer. On the day of the assay, cells are washed 3 times with 100 μl assay buffer and then incubated for 60 minutes (37° C., 5% CO2) in 60 μl assay buffer containing 1 μM Fluo-4AM ester, 0.02% pluronic acid, and 1% BSA. The dye loading solution is then aspirated and cells are washed 3 times with 100 μl assay buffer. 30 μl of that same buffer is left in each well. Within the Fluorescent Imaging Plate Reader (FLIPR, Molecular Devices), test compounds are added to the plate in a volume of 25 μl, incubated for 5 minutes, and then 25 μl of agonist is added. Fluorescence is measured for each well at 1 second intervals for 5 minutes, and the height of each fluorescence peak is compared to the height of the fluorescence peak induced by 70 pM of agonist ala-6,12 orexin-A with buffer in place of test compound. IC50 value for the test compound is determined to be the concentration of compound needed to inhibit 50% of the agonist response. Alternatively, compound potency can be assessed using a radioligand binding assay (described in Bergman et. al. Bioorg. Med. Chem. Lett. 2008, 18:1425-1430) in which the inhibition constant (Ki) is determined in membranes prepared from CHO cells expressing either the OX1 or OX2 receptor. The intrinsic orexin receptor antagonist activity of a compound of the present invention may be determined by these assays.
(§2) Chinese hamster ovary (CHO) cells expressing the human orexin-1 receptor (hOX1R) or the human orexin-2 receptor (hOX2R) were grown in Iscove's modified DMEM containing 2 mM L-glutamine, […], 1% hypoxanthine-thymidine supplement, 100 U/ml penicillin, 100 μg/ml streptomycin and 10% heat-inactivated fetal calf serum (FCS). The cells were seeded at −20,000 cells/well into Becton-Dickinson black 384-well clear bottom sterile plates coated with poly-D-lysine. All reagents were from GIBCO-Invitrogen Corp. The seeded plates were incubated overnight at 37° C. and 5% CO2. Ala-6,12 human orexin-A, used as the agonist, was prepared as a 1 mM stock solution in 1% bovine serum albumin (BSA) and diluted in assay buffer (HBSS containing 20 mM HEPES, 0.1% BSA and 2.5 mM probenecid, pH7.4) for use in the assay at a final concentration of 70 pM. Test compounds were prepared as 10 mM stock solution in DMSO, then diluted in 384-well plates, first in DMSO, then assay buffer.
(§3) On the day of the assay, cells were washed 3× with 100 μl assay buffer and then incubated for 60 minutes (37° C., 5% CO2) in 60 μl assay buffer containing 1 μM Fluo-4AM ester, 0.02% pluronic acid, and 1% BSA. The dye loading solution was then aspirated and cells were washed 3× with 100 μl assay buffer. 30 μl of that same buffer was left in each well. […]

[2] = molecular target: T2, human orexin-1 receptor (hOX1R) (Homo sapiens, UniProt O43613); experiment: FLIPR Ca2+ Flux Assay, hOX1R; type: cell-based; settings: CHO cells expressing hOX1R; agonist Ala-6,12 human orexin-A 70 pM
T2 construct: expressed in transfected cells; host or cells: Chinese hamster ovary (CHO) cells
T2 sequence (O43613 1-425): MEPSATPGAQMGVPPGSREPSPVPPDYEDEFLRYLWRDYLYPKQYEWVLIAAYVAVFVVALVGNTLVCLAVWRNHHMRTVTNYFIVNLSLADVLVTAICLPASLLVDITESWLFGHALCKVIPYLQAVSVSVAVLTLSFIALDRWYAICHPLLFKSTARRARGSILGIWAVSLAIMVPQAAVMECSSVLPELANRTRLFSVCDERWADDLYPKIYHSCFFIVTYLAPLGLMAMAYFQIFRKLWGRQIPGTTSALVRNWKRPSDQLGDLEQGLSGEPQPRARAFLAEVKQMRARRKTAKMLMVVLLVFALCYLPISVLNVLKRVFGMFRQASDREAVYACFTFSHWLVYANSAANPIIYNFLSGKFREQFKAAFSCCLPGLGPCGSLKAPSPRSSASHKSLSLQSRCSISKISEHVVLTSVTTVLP
Excerpt: as §1, §2, §3

IC50 [1]	IC50 [2]	Compound
38.5 nM	839 nM	C[C@@H]1CC[C@@H](Oc2nccc(C(F)(F)F)c2F)CN1C(=O)c1ccccc1-n1nccn1 [Example 1, 3-Fluoro-2-{[(3R,6R)-6-methyl-1-{[2-(2H-1,2,3-triazol-2-yl)phenyl]carbonyl}piperidin-3-yl]oxy}-4-(trifluoromethyl)pyridine]
105 nM		COc1ccc(C(=O)N2C[C@H](Oc3nccc(C(F)(F)F)c3F)CC[C@H]2C)c(-n2nccn2)n1 [Example 2, 3-fluoro-2-{[(3R,6R)-1-{[6-methoxy-2-(2H-1,2,3-triazol-2-yl)pyridin-3-yl]carbonyl}-6-methylpiperidin-3-yl]oxy}-4-(trifluoromethyl)pyridine]
17.8 nM	377 nM	C[C@@H]1CC[C@@H](Oc2cc(C(F)(F)F)ccn2)CN1C(=O)c1ccccc1-n1nccn1 [Example 3, 2-{[(3R,6R)-6-methyl-1-{[2-(2H-1,2,3-triazol-2-yl)phenyl]carbonyl}piperidin-3-yl]oxy}-4-(trifluoromethyl)pyridine]
8.8 nM	118 nM	Cc1c(I)ccnc1O[C@@H]1CC[C@@H](C)N(C(=O)c2ccccc2-n2nccn2)C1 [Example 4, 4-iodo-3-methyl-2-{[(3R,6R)-6-methyl-1-{[2-(2H-1,2,3-triazol-2-yl)phenyl]carbonyl}piperidin-3-yl]oxy}pyridine]
7.3 nM	414 nM	C[C@@H]1CC[C@@H](Oc2cc(I)ccn2)CN1C(=O)c1ccccc1-n1nccn1 [Example 5, 4-iodo-2-{[(3R,6R)-6-methyl-1-{[2-(2H-1,2,3-triazol-2-yl)phenyl]carbonyl}piperidin-3-yl]oxy}pyridine]
10 nM	828 nM	C[C@@H]1CC[C@@H](Oc2cc(C(F)(F)F)ccn2)CN1C(=O)c1ccccc1-n1ncnn1 [Example 6, 2-{[(3R,6R)-6-Methyl-1-{[2-(2H-tetrazol-2-yl)phenyl]carbonyl}piperidin-3-yl]oxy}-4-(trifluoromethyl)pyridine]
85.7 nM		COc1ccc(C(=O)N2C[C@H](Oc3cc(Cl)ccn3)CC[C@H]2C)c(-n2nccn2)n1 [Example 7, 3-({(2R,5R)-5-[(4-chloropyridin-2-yl)oxy]-2-methylpiperidin-1-yl}carbonyl)-6-methoxy-2-(2H-1,2,3-triazol-2-yl)pyridine]
49.3 nM	2500 nM	COc1ccc(C(=O)N2C[C@H](Oc3nccc(I)c3OC)CC[C@H]2C)c(-n2nccn2)n1 [Example 8, 4-iodo-3-methoxy-2-{[(3R,6R)-1-{[6-methoxy-2-(2H-1,2,3-triazol-2-yl)pyridin-3-yl]carbonyl}-6-methylpiperidin-3-yl]oxy}pyridine]
36.3 nM		COc1ccc(C(=O)N2C[C@H](Oc3cc(Br)ccn3)CC[C@H]2C)c(-n2nccn2)n1 [Example 9, 3-({(2R,5R)-5-[(4-bromopyridin-2-yl)oxy]-2-methylpiperidin-1-yl}carbonyl)-6-methoxy-2-(2H-1,2,3-triazol-2-yl)pyridine]
55 nM	3850 nM	C[C@@H]1CC[C@@H](Oc2cc(F)ccn2)CN1C(=O)c1ccccc1-n1ncnn1 [Example 10, 4-fluoro-2-{[(3R,6R)-6-methyl-1-{[2-(2H-tetrazol-2-yl)phenyl]carbonyl}piperidin-3-yl]oxy}pyridine]
10 nM	917 nM	C[C@@H]1CC[C@@H](Oc2cc(Cl)ccn2)CN1C(=O)c1ccccc1-n1ncnn1 [Example 11]
10 nM	986 nM	C[C@@H]1CC[C@@H](Oc2cc(Br)ccn2)CN1C(=O)c1ccccc1-n1ncnn1 [Example 12, 4-bromo-2-{[(3R,6R)-6-methyl-1-{[2-(2H-tetrazol-2-yl)phenyl]carbonyl}piperidin-3-yl]oxy}pyridine]
467 nM		COc1ccc(C(=O)N2C[C@H](Oc3cc(F)ccn3)CC[C@H]2C)c(-n2nccn2)n1 [Example 13, 3-({(2R,5R)-5-[(4-fluoropyridin-2-yl)oxy]-2-methylpiperidin-1-yl}carbonyl)-6-methoxy-2-(2H-1,2,3-triazol-2-yl)pyridine]
78.7 nM		COc1ccc(C(=O)N2C[C@H](Oc3nccc(I)c3OC)CC[C@H]2C)c(-c2ncccn2)n1 [Example 14, 2-[3-({(2R,5R)-5-[(4-Iodo-3-methoxypyridin-2-yl)oxy]-2-methylpiperidin-1-yl}carbonyl)-6-methoxypyridin-2-yl]pyrimidine]
10.8 nM	548 nM	C[C@@H]1CC[C@@H](Oc2cc(Cl)ccn2)CN1C(=O)c1ccccc1-n1nccn1 [Example 15, 4-Chloro-2-{[(3R,6R)-6-methyl-1-{[2-(2H-1,2,3-triazol-2-yl)phenyl]carbonyl}piperidin-3-yl]oxy}pyridine]
34 nM	2310 nM	C[C@@H]1CC[C@@H](Oc2cc(F)ccn2)CN1C(=O)c1ccccc1-n1nccn1 [Example 16, 4-fluoro-2-{[(3R,6R)-6-methyl-1-{[2-(2H-1,2,3-triazol-2-yl)phenyl]carbonyl}piperidin-3-yl]oxy}pyridine]
3.8 nM	179 nM	C[C@@H]1CC[C@@H](Oc2cc(Br)ccn2)CN1C(=O)c1ccccc1-n1nccn1 [Example 17, 4-bromo-2-{[(3R,6R)-6-methyl-1-{[2-(2H-1,2,3-triazol-2-yl)phenyl]carbonyl}piperidin-3-yl]oxy}pyridine]
132 nM		C[C@@H]1CC[C@@H](Oc2cccc(F)c2)CN1C(=O)c1ccccc1-n1nccn1 [Example 18, (2R,5R)-5-(3-fluorophenoxy)-2-methyl-1-{[2-(2H-1,2,3-triazol-2-yl)phenyl]carbonyl}piperidine]
